Data on 30 compounds can be found in US8426437B2, “Pyrroloquinoline derivatives and their use as protein kinases inhibitors” (Pierre Fabre Medicament, priority 2005, dated 2013).

One experiment has as its target T1, RET (Homo sapiens, UniProt P07949).
T1 construct: purchased Upstate 14-570MG
The experiment is described as follows: Inhibition of RET kinase activity, recombinant RET method (Kinase-Glo). The format is biochemical. Conditions: RET 2 μg/ml, poly-EY4 substrate, 20 μM ATP, two hours at 30° C. A digest of the protocol: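 Recombinant RET at 2 μg/ml in 20 mM MOPS/NaOH pH 7.0, 1 mM EDTA, 5% glycerol, 0.01% Brij35, 0.1% 2-mercaptoethanol, 1 mg/ml BSA; compounds 10 nM–30 μM final.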
For orientation: Kinase-Glo measures the ATP left after a reaction by luminescence.

In the next experiment the target is T2, PIM-1 (Homo sapiens, UniProt P11309).
T2 construct: purchased Upstate 14-573
T2 sequence (P11309 whole entry): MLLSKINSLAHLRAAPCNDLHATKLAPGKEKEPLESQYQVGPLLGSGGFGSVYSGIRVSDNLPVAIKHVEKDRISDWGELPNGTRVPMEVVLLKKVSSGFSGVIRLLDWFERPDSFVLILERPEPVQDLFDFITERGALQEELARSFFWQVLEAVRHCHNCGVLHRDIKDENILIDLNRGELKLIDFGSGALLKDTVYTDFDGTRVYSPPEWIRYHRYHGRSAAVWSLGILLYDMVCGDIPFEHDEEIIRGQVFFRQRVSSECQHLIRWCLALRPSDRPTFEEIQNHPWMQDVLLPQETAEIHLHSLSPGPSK
The experiment is described as follows: Inhibition of kinase PIM-1 (Kinase-Glo). It is filed as biochemical. The conditions noted are these: PIM-1 0.625 μg/ml, 10 μM ATP, forty minutes at 30° C. As for the experimental part:
Protein PIM-1 (Upstate #14-573 batch 25864U) is incubated at a concentration of 0.625 μg/ml in a buffer containing 8 mM of MOPS/NaOH pH7, 0.2 mM EDTA, 5 mM MgAc (Sigma #229768), 0.01% Triton Tx100, in the presence of 70 μM of peptide substrate S6 Kinase/Rsk2 (Upstate #12-243), and 10 μM of ATP.
The dilution buffer for PIM-1 is as follows: 20 mM MOPS/NaOH pH7, 1 mM EDTA, 5% glycerol, 0.01% Brij35, 0.1% 2-mercapto, 1 mg/ml BSA
The compound to be tested is first added to the enzyme to give a reaction volume of 50 μl. The dilution of the compounds of the invention is distributed so as to obtain a scale of final concentrations between 10 nM and 30 μM.
After incubation of the reaction mixture for forty minutes at 30° C., the level of ATP that remains is assayed using the Kinase-Glo Luminescent Kinase Assay (Promega #V6712) according to the conditions recommended by the supplier. The luminescence induced is read in a plate reader (Envision-Perkin Elmer).

Molecules are shown by their SMILES. Counter-ions that a name gives are not always drawn.

A word on the IC50: it is the concentration that gives 50% inhibition.

T1 sequence (P07949 29-1114): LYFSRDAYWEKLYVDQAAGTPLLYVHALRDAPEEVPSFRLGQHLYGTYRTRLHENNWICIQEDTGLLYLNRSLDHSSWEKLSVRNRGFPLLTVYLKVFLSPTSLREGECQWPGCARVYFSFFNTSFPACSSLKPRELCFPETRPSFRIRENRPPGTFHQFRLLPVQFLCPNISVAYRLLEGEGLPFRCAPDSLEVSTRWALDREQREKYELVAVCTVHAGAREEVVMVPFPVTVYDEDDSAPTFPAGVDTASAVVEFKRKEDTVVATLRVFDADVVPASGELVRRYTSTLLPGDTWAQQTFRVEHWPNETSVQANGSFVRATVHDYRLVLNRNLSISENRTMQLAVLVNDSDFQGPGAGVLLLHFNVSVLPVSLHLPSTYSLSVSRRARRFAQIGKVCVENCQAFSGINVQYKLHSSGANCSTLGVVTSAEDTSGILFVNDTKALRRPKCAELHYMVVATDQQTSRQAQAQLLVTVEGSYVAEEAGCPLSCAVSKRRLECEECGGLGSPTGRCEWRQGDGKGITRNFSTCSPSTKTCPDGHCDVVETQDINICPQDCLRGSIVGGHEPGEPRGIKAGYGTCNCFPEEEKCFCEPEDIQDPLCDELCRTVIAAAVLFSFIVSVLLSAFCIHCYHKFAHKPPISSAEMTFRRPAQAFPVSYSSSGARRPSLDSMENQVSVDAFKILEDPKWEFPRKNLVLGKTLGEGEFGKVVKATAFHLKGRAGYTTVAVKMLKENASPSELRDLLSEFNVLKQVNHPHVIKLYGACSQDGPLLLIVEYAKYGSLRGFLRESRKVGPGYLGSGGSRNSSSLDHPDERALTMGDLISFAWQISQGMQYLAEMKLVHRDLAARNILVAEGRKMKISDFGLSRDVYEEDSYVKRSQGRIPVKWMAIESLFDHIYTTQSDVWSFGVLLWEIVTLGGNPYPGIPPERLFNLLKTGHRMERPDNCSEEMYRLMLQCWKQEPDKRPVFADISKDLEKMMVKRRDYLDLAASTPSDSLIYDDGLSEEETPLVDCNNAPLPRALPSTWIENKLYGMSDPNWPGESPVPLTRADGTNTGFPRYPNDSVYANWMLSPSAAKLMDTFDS

As to `CCOC(=O)c1c[nH]c2c(=O)[nH]c3ccc(S(=O)(=O)N(C)c4cccc(Cl)c4)cc3c12` [Compound 34, 8-[(3-Chlorophenyl)-methyl-sulfamoyl)-4-oxo-4,5-dihydro-3H-pyrrolo[2,3-c]quinoline-1-ethyl carboxylate], the figures for the IC50 on RET and at PIM-1 were 0.1 to 1 µM and 1 to 10 µM, respectively.

In the case of `CCOC(=O)c1c[nH]c2c(=O)[nH]c3ccc(NC)cc3c12` [Compound 63, 8-Methylamino-4-oxo-4,5-dihydro-3H-pyrrolo[2,3-c]quinoline-1-ethyl carboxylate hydrochloride], the IC50 at RET fell in the range of 1 to 10 µM; on PIM-1 it was 10 to 100 µM.

As to `CCOC(=O)c1c[nH]c2c(=O)[nH]c3ccc(N)cc3c12` [Compound 64, 8-Amino-4-oxo-4,5-dihydro-3H-pyrrolo[2,3-c]quinoline-1-ethyl carboxylate], the IC50 on RET lay within 1 to 10 µM; at PIM-1 it was 10 to 100 µM.

Take `CCOC(=O)c1c[nH]c2c(=O)[nH]c3ccc(-c4ccc(NC(=O)OC(C)(C)C)cc4)cc3c12` [Compound 243, 8-(4-tert-Butoxycarbonylaminophenyl)-4-oxo-4,5-dihydro-3H-pyrrolo[2,3-c]quinoline-1-ethyl carboxylate]: at RET, the IC50 lay within 1 to 10 µM.

In the case of `CCOC(=O)c1c[nH]c2c(=O)[nH]c3ccc(-c4ccc(S(C)(=O)=O)cc4)cc3c12` [Compound 245, 8-(4-Methanesulfonyl-phenyl)-4-oxo-4,5-dihydro-3H-pyrrolo[2,3-c]quinoline-1-ethyl carboxylate], the IC50 on RET lay in the range of 1 to 10 µM.

`CCOC(=O)c1c[nH]c2c(=O)[nH]c3ccc(-c4ccc(OC)cc4)cc3c12` [Compound 246, 8-(4-Methoxy-phenyl)-4-oxo-4,5-dihydro-3H-pyrrolo[2,3-c]quinoline-1-ethyl carboxylate]: the IC50 on RET was 1 to 10 µM.

As to `CCOC(=O)c1c[nH]c2c(=O)[nH]c3ccc(-c4ccc(C#N)cc4)cc3c12` [Compound 247, 8-(4-Cyano-phenyl)-4-oxo-4,5-dihydro-3H-pyrrolo[2,3-c]quinoline-1-ethyl carboxylate], the IC50 on RET lay in the range of 10 to 100 µM.

For the compound `CCOC(=O)c1c[nH]c2c(=O)[nH]c3ccc(-c4ccc5c(c4)OCCO5)cc3c12` [Compound 248, 8-(2,3-Dihydro-benzo[1,4]dioxin-6-yl)-4-oxo-4,5-dihydro-3H-pyrrolo[2,3-c]quinoline-1-ethyl carboxylate], on RET, the IC50 lay within 0.1 to 1 µM.

Take `CCOC(=O)c1c[nH]c2c(=O)[nH]c3ccc(-c4cccc5ccccc45)cc3c12` [Compound 249, 8-Naphthalen-1-yl-4-oxo-4,5-dihydro-3H-pyrrolo[2,3-c]quinoline-1-ethyl carboxylate]: the IC50 on RET is 0.1 to 1 µM.

For `CCOC(=O)c1c[nH]c2c(=O)[nH]c3ccc(-c4cccc5cccnc45)cc3c12` [Compound 250, 4-Oxo-8-quinolin-8-yl-4,5-dihydro-3H-pyrrolo[2,3-c]quinoline-1-ethyl carboxylate], at RET, the IC50 lay in the range of 1 to 10 µM.

`CCOC(=O)c1c[nH]c2c(=O)[nH]c3ccc(-c4cc(S(C)(=O)=O)ccc4N)cc3c12` [Compound 251, 8-(2-Amino-5-methanesulfonyl-phenyl)-4-oxo-4,5-dihydro-3H-pyrrolo[2,3-c]quinoline-1-ethyl carboxylate]: at RET, the half-inhibitory concentration (IC50) is 0.1 to 1 µM.

Take `CCOC(=O)c1c[nH]c2c(=O)[nH]c3ccc(-c4ccc5[nH]ccc5c4)cc3c12` [Compound 252, 8-(1H-Indol-5-yl)-4-oxo-4,5-dihydro-3H-pyrrolo[2,3-c]quinoline-1-ethyl carboxylate]: the IC50 on RET is 0.1 to 1 µM.

Take `CCOC(=O)c1c[nH]c2c(=O)[nH]c3ccc(-c4ccc5c(ccn5C(=O)OC(C)(C)C)c4)cc3c12` [Compound 253, 8-(1-tert-Butoxycarbonyl-1H-indol-5-yl)-4-oxo-4,5-dihydro-3H-pyrrolo[2,3-c]quinoline-1-ethyl carboxylate]: the IC50 at RET is 1 to 10 µM.

Turning to `CCCOC(=O)c1c[nH]c2c(=O)[nH]c3ccc(-c4cccc(S(C)(=O)=O)c4)cc3c12` [Compound 254, 8-(3-Methanesulfonyl-phenyl)-4-oxo-4,5-dihydro-3H-pyrrolo[2,3-c]quinoline-1-propyl carboxylate], the IC50 on RET lay in the range of 0.1 to 1 µM.

Consider `CC(C)COC(=O)c1c[nH]c2c(=O)[nH]c3ccc(-c4cccc(S(C)(=O)=O)c4)cc3c12` [Compound 255, 8-(3-Methanesulfonyl-phenyl)-4-oxo-4,5-dihydro-3H-pyrrolo[2,3-c]quinoline-1-isobutyl carboxylate], for which the IC50 on RET fell in the range of 1 to 10 µM.

Regarding `CS(=O)(=O)c1cccc(-c2ccc3[nH]c(=O)c4[nH]cc(C(=O)OC5CCCC5)c4c3c2)c1` [Compound 256, 8-(3-Methanesulfonyl-phenyl)-4-oxo-4,5-dihydro-3H-pyrrolo[2,3-c]quinoline-1-cyclopentyl carboxylate], at RET, the IC50 fell in the range of 0.1 to 1 µM.

With `CCOC(=O)c1c[nH]c2c(=O)[nH]c3cc(Cl)c(-c4cccc(S(C)(=O)=O)c4)cc3c12` [Compound 257, 7-Chloro-8-(3-methanesulfonyl-phenyl)-4-oxo-4,5-dihydro-3H-pyrrolo[2,3-c]quinoline-1-ethyl carboxylate], the IC50 at RET fell in the range of 0.1 to 1 µM.

For the compound `CCOC(=O)c1c[nH]c2c(=O)[nH]c3ccc(-c4cccnc4)cc3c12` [Compound 258, 4-Oxo-8-pyridin-3-yl-4,5-dihydro-3H-pyrrolo[2,3-c]quinoline-1-ethyl carboxylate], on RET, the IC50 was 1 to 10 µM.

Turning to `CCOC(=O)c1c[nH]c2c(=O)[nH]c3ccc(-c4ccc(OC)nc4)cc3c12` [Compound 260, 8-(6-Methoxy-pyridin-3-yl)-4-oxo-4,5-dihydro-3H-pyrrolo[2,3-c]quinoline-1-ethyl carboxylate], the IC50 on RET lay within 1 to 10 µM.

As for `CCOC(=O)c1c[nH]c2c(=O)[nH]c3ccc(-c4ccnc(N5CCN(c6ccccn6)CC5)n4)cc3c12` [Compound 265, 4-Oxo-8-[2-(4-pyridin-2-yl-piperazin-1-yl)-pyrimidin-4-yl]-4,5-dihydro-3H-pyrrolo[2,3-c]quinoline-1-ethyl carboxylate], the IC50 at RET was 1 to 10 µM.

Consider `CCOC(=O)c1c[nH]c2c(=O)[nH]c3ccc(-c4csc(Nc5ccccc5Cl)n4)cc3c12` [Compound 272, 8-[2-(2-Chlorophenylamino)-thiazol-4-yl]-4-oxo-4,5-dihydro-3H-pyrrolo[2,3-c]quinoline-1-ethyl carboxylate], for which the IC50 at RET fell in the range of 1 to 10 µM.

As for `CCOC(=O)c1c[nH]c2c(=O)[nH]c3ccc(-c4csc(Nc5ccc(Cl)c(Cl)c5)n4)cc3c12` [Compound 273, 8-[2-(3,4-Dichlorophenylamino)-thiazol-4-yl]-4-oxo-4,5-dihydro-3H-pyrrolo[2,3-c]quinoline-1-ethyl carboxylate], the IC50 on RET is 1 to 10 µM.

Take `CCOC(=O)c1c[nH]c2c(=O)[nH]c3ccc(-c4csc(Nc5c(Cl)cccc5Cl)n4)cc3c12` [Compound 274, 8-[2-(2,6-Dichlorophenylamino)-thiazol-4-yl]-4-oxo-4,5-dihydro-3H-pyrrolo[2,3-c]quinoline-1-ethyl carboxylate]: the IC50 at RET was in the range of 10 to 100 µM.

For `CCOC(=O)c1c[nH]c2c(=O)[nH]c3ccc(-c4csc(NC(=O)C5CC5)n4)cc3c12` [Compound 275, 8-[2-(Cyclopropanecarbonyl-amino)-thiazol-4-yl]-4-oxo-4,5-dihydro-3H-pyrrolo[2,3-c]quinoline-1-ethyl carboxylate], the half-inhibitory concentration (IC50) on RET was in the range of 0.1 to 1 µM.

As for `CCOC(=O)c1c[nH]c2c(=O)[nH]c3ccc(-c4csc(CSc5ccccc5)n4)cc3c12` [Compound 276, 4-Oxo-8-(2-phenylsulfanylmethyl-thiazol-4-yl)-4,5-dihydro-3H-pyrrolo[2,3-c]quinoline-1-ethyl carboxylate], the IC50 on RET was in the range of 0.1 to 1 µM.

For the compound `CCOC(=O)c1c[nH]c2c(=O)[nH]c3ccc(-c4csc(C)n4)cc3c12` [Compound 278, 8-(2-Methyl-thiazol-4-yl)-4-oxo-4,5-dihydro-3H-pyrrolo[2,3-c]quinoline-1-ethyl carboxylate], the IC50 on RET lay within 1 to 10 µM.

As to `CCOC(=O)c1c[nH]c2c(=O)[nH]c3ccc(-c4csc(-c5ccccc5)n4)cc3c12` [Compound 279, 4-Oxo-8-(2-phenyl-thiazol-4-yl)-4,5-dihydro-3H-pyrrolo[2,3-c]quinoline-1-ethyl carboxylate], the IC50 on RET was in the range of 1 to 10 µM.

On to `CCOC(=O)c1c[nH]c2c(=O)[nH]c3ccc(-c4csc(NNc5ccccc5)n4)cc3c12` [Compound 280, 4-Oxo-8-[2-(N′-phenyl-hydrazino)-thiazol-4-yl]-4,5-dihydro-3H-pyrrolo[2,3-c]quinoline-1-ethyl carboxylate], for which the IC50 at RET lay within 1 to 10 µM.

For `CCOC(=O)c1c[nH]c2c(=O)[nH]c3ccc(-c4ccno4)cc3c12` [Compound 281, 8-Isoxazol-5-yl-4-oxo-4,5-dihydro-3H-pyrrolo[2,3-c]quinoline-1-ethyl carboxylate], the IC50 at RET is 0.1 to 1 µM.

As to `CCOC(=O)c1c[nH]c2c(=O)[nH]c3ccc(-c4ccn(C)n4)cc3c12` [Compound 283, 8-(1-Methyl-1H-pyrazol-3-yl)-4-oxo-4,5-dihydro-3H-pyrrolo[2,3-c]quinoline-1-ethyl carboxylate], the IC50 on RET was in the range of 0.1 to 1 µM.
